# Values of other authors in US6635271B1, “Method for increasing the concentration of conjugated linoleic acid in milk and/or tissue fat of a ruminant” (Valio Oy, priority 1997, dated 2003).
# Conditions: vaccenic acid fed to mice (Santora et al. 1998)
smiles,measurement,value
"CCCCCC/C=C\CCCCCCCCCC(=O)O [vaccenic acid, trans-11 isomer of octadecenoic acid]",tissue fat CLA concentration,tripled
